# Source: ChEMBL document CHEMBL1146560, “The isolation and structure elucidation of Tasiamide B, a 4-amino-3-hydroxy-5-phenylpentanoic acid containing peptide from the marine Cyanobacterium Symploca sp” (J Nat Prod, 2003)
# *1 amine or outer side, *2 acyl side, *3 side chain or, on linkers, in order; H or OH if unused. Where a SMILES comes first, the peptide text is derived from it. [ ]: non-standard residue; d: D form. Ahppa(3S,4S) = O=C(C[C@H](O)[C@H](Cc1ccccc1)N[*:1])[*:2]; dNMeF = CN[C@H](Cc1ccccc1)C(=O)O; NMeQ = CN[C@@H](CCC(N)=O)C(=O)O; Lac = C[C@H](O)C(=O)O
# Test system: KB
# Assay: Cytotoxicity against human KB cells
# Format: functional, cell-based
structure (smiles),measurement,value
"COC(=O)[C@@H]1CCCN1C(=O)[C@@H](Cc1ccccc1)N(C)C(=O)[C@H](C)NC(=O)[C@H](CC(C)C)NC(=O)C[C@H](O)[C@H](Cc1ccccc1)NC(=O)[C@H](CCC(N)=O)N(C)C(=O)[C@@H](NC(=O)[C@H](C)O)C(C)C [TASIAMIDE B] (H-[Lac]V[NMeQ][Ahppa(3S,4S)]LA[dNMeF]P-OMe)",IC50,800 nM
